Reference: the NIST ThermoML archive (doi:10.1021/je900387e)
Numbers after ± are expanded uncertainties.

Assay: xn = mol fraction of the nth substance listed
Settings: Liquid, Pycnometric method

CCCCCl [1-chlorobutane] + O=C=O
Settings	mass density [kg/m3]
327.6 K, 14940 kPa, x1 = 0.0981	822 ± 4
327.6 K, 15140 kPa, x1 = 0.0981	825 ± 4
332.4 K, 9070 kPa, x1 = 0.1488	732 ± 4
332.4 K, 9260 kPa, x1 = 0.1488	737 ± 4
332.4 K, 9420 kPa, x1 = 0.1488	740 ± 4
332.4 K, 9430 kPa, x1 = 0.0981	649 ± 4
332.4 K, 9510 kPa, x1 = 0.0981	654 ± 4
332.4 K, 9560 kPa, x1 = 0.0981	657 ± 4
332.4 K, 9590 kPa, x1 = 0.1488	744 ± 4
332.4 K, 9660 kPa, x1 = 0.0981	663 ± 4
332.4 K, 9750 kPa, x1 = 0.0483	421 ± 4
332.4 K, 9760 kPa, x1 = 0.0981	669 ± 4
332.4 K, 9760 kPa, x1 = 0.1488	748 ± 4
332.4 K, 9800 kPa, x1 = 0.0483	426 ± 4
332.4 K, 9860 kPa, x1 = 0.0483	433 ± 4
332.4 K, 9870 kPa, x1 = 0.0981	675 ± 4
332.4 K, 9910 kPa, x1 = 0.0483	441 ± 4
332.4 K, 9940 kPa, x1 = 0.1488	751 ± 4
332.4 K, 9970 kPa, x1 = 0.0483	449 ± 4
332.4 K, 10000 kPa, x1 = 0.0981	682 ± 4
332.4 K, 10050 kPa, x1 = 0.0483	458 ± 4
332.4 K, 10130 kPa, x1 = 0.0981	687 ± 4
332.4 K, 10130 kPa, x1 = 0.1488	755 ± 4
332.4 K, 10150 kPa, x1 = 0.0483	469 ± 4
332.4 K, 10200 kPa, x1 = 0.0483	478 ± 4
332.4 K, 10280 kPa, x1 = 0.0483	487 ± 4
332.4 K, 10290 kPa, x1 = 0.0981	694 ± 4
332.4 K, 10340 kPa, x1 = 0.1488	758 ± 4
332.4 K, 10390 kPa, x1 = 0.0483	497 ± 4
332.4 K, 10470 kPa, x1 = 0.0981	700 ± 4
332.4 K, 10490 kPa, x1 = 0.0483	507 ± 4
332.4 K, 10570 kPa, x1 = 0.1488	762 ± 4
332.4 K, 10590 kPa, x1 = 0.0483	518 ± 4
332.4 K, 10650 kPa, x1 = 0.0981	707 ± 4
332.4 K, 10700 kPa, x1 = 0.0483	529 ± 4
332.4 K, 10800 kPa, x1 = 0.1488	766 ± 4
332.4 K, 10830 kPa, x1 = 0.0483	541 ± 4
332.4 K, 10850 kPa, x1 = 0.0981	713 ± 4
332.4 K, 10970 kPa, x1 = 0.0483	554 ± 4
332.4 K, 11030 kPa, x1 = 0.1488	770 ± 4
332.4 K, 11080 kPa, x1 = 0.0981	720 ± 4
332.4 K, 11140 kPa, x1 = 0.0483	569 ± 4
332.4 K, 11280 kPa, x1 = 0.1488	774 ± 4
332.4 K, 11330 kPa, x1 = 0.0981	727 ± 4
332.4 K, 11350 kPa, x1 = 0.0483	584 ± 4
332.4 K, 11560 kPa, x1 = 0.0483	598 ± 4
332.4 K, 11570 kPa, x1 = 0.1488	778 ± 4
332.4 K, 11590 kPa, x1 = 0.0981	734 ± 4
332.4 K, 11830 kPa, x1 = 0.0483	613 ± 4
332.4 K, 11840 kPa, x1 = 0.1488	782 ± 4
332.4 K, 11980 kPa, x1 = 0.0981	743 ± 4
332.4 K, 12120 kPa, x1 = 0.0483	629 ± 4
332.4 K, 12300 kPa, x1 = 0.0483	637 ± 4
332.4 K, 12330 kPa, x1 = 0.1488	788 ± 4
332.4 K, 12430 kPa, x1 = 0.0981	753 ± 4
332.4 K, 12530 kPa, x1 = 0.0483	648 ± 4
332.4 K, 12610 kPa, x1 = 0.0483	652 ± 4
332.4 K, 12820 kPa, x1 = 0.1488	794 ± 4
332.4 K, 12960 kPa, x1 = 0.0981	763 ± 4
332.4 K, 13360 kPa, x1 = 0.1488	800 ± 4
332.4 K, 13540 kPa, x1 = 0.0981	774 ± 4
332.4 K, 13940 kPa, x1 = 0.1488	806 ± 4
332.4 K, 14190 kPa, x1 = 0.0981	785 ± 4
332.4 K, 14570 kPa, x1 = 0.1488	813 ± 4
332.4 K, 14840 kPa, x1 = 0.1488	816 ± 4
332.4 K, 14900 kPa, x1 = 0.0981	795 ± 4
332.4 K, 15110 kPa, x1 = 0.0981	798 ± 4
333.3 K, 9630 kPa, x1 = 0.0744	545 ± 4
333.3 K, 9660 kPa, x1 = 0.0744	551 ± 4
333.3 K, 9690 kPa, x1 = 0.0744	556 ± 4
333.3 K, 9740 kPa, x1 = 0.0744	563 ± 4
333.3 K, 9810 kPa, x1 = 0.0744	571 ± 4
333.3 K, 9900 kPa, x1 = 0.0744	578 ± 4
333.3 K, 9980 kPa, x1 = 0.0744	586 ± 4
333.3 K, 10100 kPa, x1 = 0.0744	597 ± 4
333.3 K, 10250 kPa, x1 = 0.0744	608 ± 4
333.3 K, 10410 kPa, x1 = 0.0744	620 ± 4
333.3 K, 10600 kPa, x1 = 0.0744	632 ± 4
333.3 K, 10840 kPa, x1 = 0.0744	645 ± 4
333.3 K, 11110 kPa, x1 = 0.0744	658 ± 4
333.3 K, 11420 kPa, x1 = 0.0744	672 ± 4
333.3 K, 11800 kPa, x1 = 0.0744	686 ± 4
333.3 K, 12260 kPa, x1 = 0.0744	701 ± 4
333.3 K, 12810 kPa, x1 = 0.0744	717 ± 4
